Data set [1] can be described thus: Oral bioavailability in rhesus monkey. It is filed as ADME, organism-based, Macaca mulatta. The settings on record: in vivo.
Data set [2] is described as follows: Plasma clearance in rhesus monkey. The format is ADME, organism-based, Macaca mulatta.
Data set [3] in a line: Half life in rhesus monkey. The format is ADME, organism-based, Macaca mulatta. The settings on record: in vivo.
Data set [4] deals with Rattus norvegicus. Description: Activity in rat elevated plus maze assay at 1 mg/kg, po. It is filed as functional, organism-based. Also on record: dose 1 mg/kg.
The target in data set [5] is T1, GABA-A receptor; alpha-3/beta-3/gamma-2 (Homo sapiens, UniProt P18507+P28472+P34903).
T1 sequence (P18507 whole entry): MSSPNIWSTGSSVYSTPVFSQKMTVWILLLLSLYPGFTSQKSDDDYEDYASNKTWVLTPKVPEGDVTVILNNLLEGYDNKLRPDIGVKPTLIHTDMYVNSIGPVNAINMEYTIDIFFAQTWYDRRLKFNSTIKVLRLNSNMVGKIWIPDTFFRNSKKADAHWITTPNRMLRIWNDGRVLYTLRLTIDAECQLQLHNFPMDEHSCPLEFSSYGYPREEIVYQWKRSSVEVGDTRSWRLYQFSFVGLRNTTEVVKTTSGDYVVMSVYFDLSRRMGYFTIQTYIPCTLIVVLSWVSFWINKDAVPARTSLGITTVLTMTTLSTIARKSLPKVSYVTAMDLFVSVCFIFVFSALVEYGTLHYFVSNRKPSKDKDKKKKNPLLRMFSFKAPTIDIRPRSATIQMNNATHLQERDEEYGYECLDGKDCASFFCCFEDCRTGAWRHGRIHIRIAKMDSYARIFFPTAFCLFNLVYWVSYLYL
T1 sequence (P28472 whole entry): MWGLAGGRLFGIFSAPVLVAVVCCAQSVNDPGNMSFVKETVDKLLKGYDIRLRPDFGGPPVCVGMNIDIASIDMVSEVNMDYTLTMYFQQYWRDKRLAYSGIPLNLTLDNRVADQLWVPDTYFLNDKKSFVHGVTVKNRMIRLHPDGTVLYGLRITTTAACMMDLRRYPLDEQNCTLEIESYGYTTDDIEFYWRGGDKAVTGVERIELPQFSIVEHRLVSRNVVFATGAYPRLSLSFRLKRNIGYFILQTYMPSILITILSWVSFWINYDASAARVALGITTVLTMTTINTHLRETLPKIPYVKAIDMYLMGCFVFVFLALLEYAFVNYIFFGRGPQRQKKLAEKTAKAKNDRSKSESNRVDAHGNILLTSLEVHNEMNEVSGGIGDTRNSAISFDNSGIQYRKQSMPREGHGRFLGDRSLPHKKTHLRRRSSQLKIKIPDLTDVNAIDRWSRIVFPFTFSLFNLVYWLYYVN
T1 sequence (P34903 whole entry): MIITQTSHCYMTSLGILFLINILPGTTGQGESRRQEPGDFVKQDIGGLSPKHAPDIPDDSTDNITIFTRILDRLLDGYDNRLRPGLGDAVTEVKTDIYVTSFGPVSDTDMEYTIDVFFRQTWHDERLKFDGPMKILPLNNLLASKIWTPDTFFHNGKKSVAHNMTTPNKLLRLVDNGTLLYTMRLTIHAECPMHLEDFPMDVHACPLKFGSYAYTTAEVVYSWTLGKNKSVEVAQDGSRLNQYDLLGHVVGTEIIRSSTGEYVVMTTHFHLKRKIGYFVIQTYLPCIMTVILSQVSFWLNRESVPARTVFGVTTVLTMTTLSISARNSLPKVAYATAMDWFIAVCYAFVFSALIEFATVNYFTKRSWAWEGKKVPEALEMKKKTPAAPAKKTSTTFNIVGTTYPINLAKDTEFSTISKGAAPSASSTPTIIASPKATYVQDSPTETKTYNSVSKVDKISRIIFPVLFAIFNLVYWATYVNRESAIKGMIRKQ
Description: Displacement of [3H]Ro-151788 from human recombinant GABAA alpha3 in combination with beta3gamma2 expressed in L(tk-) cells. The format is cell-based. (In general: Loss of bound radioactivity is the signal in a displacement assay; it reports binding, not function.)

Data set [6] addresses T2, GABA-A receptor; alpha-5/beta-3/gamma-2 (Homo sapiens) (UniProt P18507+P28472+P31644). Kind of data set: Efficacy against human recombinant GABAA alpha5 in combination with beta3gamma2 expressed in L(tk-) cells by whole cell patch clamp method. It is filed as functional, cell-based.
Data set [7] has as its system Squirrel monkey. Description: Anxiolytic activity in squirrel monkey conditioned emotional response test at 0.3 mg/kg, po. Also noted: dose 0.3 mg/kg. It is filed as functional, organism-based. The settings on record: Saimiri sciureus.
For data set [8], the target named is GABA-A receptor; anion channel (Rattus norvegicus) (UniProt O09028+P15431+P18506+P18508+P19969+P20236+P23574+P23576+P28471+P28473+P30191+P62813+P63079+P63138+Q91ZM7+Q9ES14). Kind of data set: Displacement of [3H]Ro-151788 from central benzodiazepine binding site in rat administered po. It is filed as functional.
Data set [9] has as its target GABA-A receptor; alpha-1/beta-3/gamma-2 (Homo sapiens) (UniProt P14867+P18507+P28472). Kind of data set: Efficacy against human recombinant GABAA alpha-1-beta-3-gamma-2 expressed in L(tk-) cells by whole cell patch clamp method relative to chlordiazepoxide. The format is functional, cell-based. A general note: In patch-clamp work, channel activity is measured electrically.

The target in data set [10] is T3, GABA-A receptor; alpha-2/beta-3/gamma-2 (Homo sapiens) (UniProt P18507+P28472+P47869). Description: Efficacy against human recombinant GABAA alpha-2-beta-3-gamma-2 expressed in L(tk-) cells by whole cell patch clamp method relative to chlordiazepoxide. The format is functional, cell-based.
Data set [11] has as its target GABA-A receptor; alpha-3/beta-3/gamma-2 (Homo sapiens) (UniProt P18507+P28472+P34903). Description: Efficacy against human recombinant GABAA alpha-3-beta-3-gamma-2 expressed in L(tk-) cells by whole cell patch clamp method relative to chlordiazepoxide. It is filed as functional, cell-based.
Data set [12] concerns the target T2, GABA-A receptor; alpha-5/beta-3/gamma-2 (Homo sapiens). Kind of data set: Efficacy against human recombinant GABAA alpha-5-beta-3-gamma-2 expressed in L(tk-) cells by whole cell patch clamp method relative to chlordiazepoxide. The format is functional, cell-based.
Data set [13] addresses T3, GABA-A receptor; alpha-2/beta-3/gamma-2 (Homo sapiens). Kind of data set: Efficacy against human recombinant GABAA alpha-2-beta-3-gamma-2 expressed in L(tk-) cells by whole cell patch clamp method. The format is cell-based.
The test system of data set [14] is Rattus norvegicus. Kind of data set: Activity in rat elevated plus maze assay at 3 mg/kg, po. The format is functional, organism-based. Also on record: dose 3 mg/kg.

The structures appear in SMILES notation. Activity calls are given as the source filed them. No cut-off for these calls is given here.

Results on two molecules are retold here after ChEMBL document CHEMBL1148587, “Imidazo[1,2-a]pyrimidines as functionally selective and orally bioavailable GABA(A)alpha2/alpha3 binding site agonists for the treatment of anxiety disorders” (J Med Chem, 2006).

In general, bioavailability refers to dose-corrected exposure relative to a reference, in per cent. For orientation: clearance means a measure of how efficiently the substance is removed, as volume per time. In general, half-life refers to how long it takes for the measured level to halve. The term Ki denotes a dissociation constant, usually derived from enzyme kinetics or from competition with a known ligand.

Take `N#Cc1cc(F)ccc1-c1cc(-c2cnc3nc(C(F)(F)F)ccn23)ccc1F`: the bioavailability in [1] stood at 49%. Also, in data set [2], the clearance came to 3 mL/min/kg. The half-life in data set [3] was 13.4 h. Moreover, the outcome in data set [4] and in data set [7] was Active. Also, in data set [5], the Ki amounted to 0.73 nM. In data set [6], the Efficacy came out at 2%. The same molecule showed an ID50 in data set [8] of 0.27 mg/kg.

Take `CC(C)(O)c1ccn2c(-c3ccc(F)c(-c4cccnc4)c3)cnc2n1`: the Efficacy in data set [9] came out at 5%; in [10], 39%; in [11], 54%; in data set [12], 18%; in data set [13], 48%; in [6] it was 20%. The Ki in [5] was determined as 4 nM. For the same molecule, the outcome in [14] and in [7] was Active. The ID50 in data set [8] is 0.84 mg/kg.
